Assay results: patent US8815872B2, “Macrocyclics pyrimidines as aurora kinase inhibitors” (Merck Patent GmbH, priority 2008, dated 2014)
Several values for one entry are separate records, joined by “and”; a condition that tells them apart may be missing. Equal values may be shown once. Read-outs that look alike come from different tables or passages of the source.

Experiments:
[1] = target: Aurora B (Homo sapiens, UniProt Q96GD4); experiment: Aurora B enzyme assay (Caliper); type: biochemical
Procedure: (§1) The Aurora and other kinase assays described here were performed on two Caliper Life Sciences systems, the LC3000 and the Desktop Profiler. These provide data on enzyme activity via measurement of the relative amounts of phosphorylated or unphosphorylated fluorescently labelled substrate peptide at the end of an enzymatic reaction. These different states of peptide are resolved by applying a potential difference across the sample. The presence of a charged phosphate group on the product (as opposed to the substrate) causes a different peptide mobility between the two peptides. This is visualized by excitation of a fluorescent label on the substrate and product peptides and represented as peaks within the analysis software.

[2] = test system: A549; experiment: Cellular activity A549; type: cell-based
Procedure: (§2) The susceptibility of a particular cell to treatment with the compounds according to the invention was determined by in vitro tests. Typically, a culture of the cell was combined with a compound according to the invention at various concentrations for a period of time that was sufficient to allow the active agents to induce cell death or to inhibit migration, usually between about one hour and one week. In vitro testing was carried out using cultivated cells from a biopsy sample. The viable cells remaining after the treatment then were counted.

[3] = target: kinases (not incl. Aurora); experiment: Kinase inhibition profile (not incl. Aurora); type: biochemical; conditions: hit means >79% inhibition
Procedure: as §1
The Desktop Profiler utilizes the same principal as the LC 3000 for calculating percentage conversion of a substrate to product. Caliper Life Sciences provided proprietary flash frozen pre-made 384 well plates containing selected kinases. Each column in the 384 well plate contained a particular selected kinase. A second plate, the ‘substrate plate’ contained a mix of fluorescently labeled peptide substrate and ATP. These were arranged in columns so that transfer for substrate plate to enzyme plate provided the correct enzyme with the correct substrate/ATP concentration.
Compounds were added to a thawed enzyme plate in the desired format, in single concentrations. Reactions were initiated by transfer of the ubstrate/ATP mix from the substrate plate. The enzyme plate was incubated for 90 mins at 25 °C. The reaction was stopped by addition of […] of Stop Buffer (100 mM HEPES pH 7.5, 0.015% Brij-35, 10 mM EDTA (Sigma, E7889)).
Plates were read in a manner identical to that of the LC3000, and the ratio between substrate and product peaks provided the activity of the enzyme in that well. This was best represented by a plate heat map which colors each well by percent inhibition as compared to positive and negative controls (no inhibitors and no ATP respectively).

[4] = target: T1, Aurora A (Homo sapiens, UniProt O14965); experiment: Aurora A enzyme assay (Caliper LC3000 mobility shift); type: biochemical
T1 construct: N-terminal GST fusion with full length Aurora A (1-403 amino acids); purchased Carna Biosciences 05-101
T1 sequence (O14965 1-403): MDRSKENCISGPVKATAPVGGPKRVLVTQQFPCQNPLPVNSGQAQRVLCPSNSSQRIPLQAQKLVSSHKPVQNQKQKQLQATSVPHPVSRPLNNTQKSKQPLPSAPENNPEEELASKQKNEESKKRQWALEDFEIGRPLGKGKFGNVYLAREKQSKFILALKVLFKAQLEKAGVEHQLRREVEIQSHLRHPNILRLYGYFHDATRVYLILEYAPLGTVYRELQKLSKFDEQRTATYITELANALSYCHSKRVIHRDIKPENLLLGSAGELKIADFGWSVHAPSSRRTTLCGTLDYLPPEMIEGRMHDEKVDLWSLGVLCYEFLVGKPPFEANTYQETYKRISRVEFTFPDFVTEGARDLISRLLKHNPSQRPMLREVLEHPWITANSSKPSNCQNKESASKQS
Procedure: as §1
For example, in order to measure inhibitor activity of Aurora A inhibitors in the Caliper Life Sciences LC3000, a TTP Mosquito liquid handling instrument was used to place […] of an appropriate concentration of inhibitor in 100% DMSO (for a dose response curve calculation) into each well of a 384-well plate. To this reaction components were added to a final volume of 25 μl: • 0.067 ng/μl GST-Aurora A (Carna Biosciences 05-101. N-terminal GST fusion with full length Aurora A (1-403 amino acids), accession number NP_940835.1). • 15 μM ATP (Fluka, 02055) • 1 mM DTT (Sigma, D0632) • 1 mM MgC12 (Sigma, M1028) • 1 μM substrate peptide (sequence FITC-LRRASLG-(CONH2), synthesized by Tufts Peptide Synthesis service. • 100 mM HEPES pH 7.5 (Calbiochem, 391338) • 0.015% Brij-35 (Sigma, B4184)
The reaction was incubated for 90 min at 25° C., and then stopped by the addition of 70 μl of Stop buffer (100 mM HEPES pH 7.5, 0.015% Brij-35, 10 mM EDTA (Sigma, E7889)).
The plate was read on a Caliper LC 3000 in an Off-Chip mobility shift assay format, using the following parameters for a 12-sipper chip: screening pressure −1.8 psi, upstream voltage −2700, downstream voltage −1000. These conditions cause unphosphorylated substrate and phosphorylated product peptide to resolve as separate peaks allowing direct measurement of percentage of conversion of substrate to product. The percent conversion was plotted against concentration of inhibitor to produce a sigmoidal dose response curve, from which an IC50 was calculated using XLFit for Microsoft Excel.

[5] = test system: MiaPaca2; experiment: Cellular activity MiaPaca2; type: cell-based
Procedure: as §2

Sequence of Aurora B (Q96GD4 whole entry): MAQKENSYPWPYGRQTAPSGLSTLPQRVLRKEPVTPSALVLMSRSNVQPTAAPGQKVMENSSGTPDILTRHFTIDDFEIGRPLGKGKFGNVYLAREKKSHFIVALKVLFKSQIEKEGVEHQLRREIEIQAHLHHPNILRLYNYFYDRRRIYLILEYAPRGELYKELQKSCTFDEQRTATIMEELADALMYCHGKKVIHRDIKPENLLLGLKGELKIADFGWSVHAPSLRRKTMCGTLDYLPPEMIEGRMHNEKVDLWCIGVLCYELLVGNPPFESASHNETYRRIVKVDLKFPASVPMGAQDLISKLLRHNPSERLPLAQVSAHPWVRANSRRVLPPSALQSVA

IC50 [1] | IC50 ([2]; Homo sapiens) | Kinase Inhibition Profile (not incl. Aurora) # kinases hit/# kinases tested ([3]; at 1 μM) | IC50 [4] | IC50 ([5]; Homo sapiens, MIA PaCa-2) | Structure (SMILES) | further results
0.001 to 0.1 µM | 0.101 to 1 µM | 0/76 at 1 μM | 0.001 to 0.1 µM | 0.101 to 1 µM | NC(=O)[C@H]1[C@H]2C[C@H]3[C@H]1Nc1nc(ncc1F)Nc1cccc(c1)[C@H](O)CS[C@@H]3C2 | 
0.001 to 0.1 µM |  |  | 1 to 6.25 µM |  | CN1Cc2cccc(c2)Nc2ncc(F)c(n2)N[C@@H]2[C@@H]3C[C@@H](C[C@H]3C1)[C@@H]2C(N)=O | ring closure, yield of all isomers (from CN(Cc1cccc(N)c1)C[C@@H]1C[C@@H]2C[C@H]1[C@@H](Nc1nc(Cl)ncc1F)[C@H]2C(N)=O, snar bond): 5.5%
0.001 to 0.1 µM |  |  | 0.101 to 1 µM |  | CN1CCN(c2ccc3cc2CNC[C@@H]2C[C@@H]4C[C@H]2[C@@H](Nc2nc(ncc2F)N3)[C@H]4C(N)=O)CC1 | ring closure, yield of all isomers (from CN1CCN(c2ccc(N)cc2CNC[C@@H]2C[C@@H]3C[C@H]2[C@@H](Nc2nc(Cl)ncc2F)[C@H]3C(N)=O)CC1, snar bond, HCl): 24.9%
1 to 6.25 µM |  |  | 1 to 6.25 µM |  | NC(=O)[C@H]1[C@@H]2C[C@H]3CNC(=O)Cn4cnc(c4)Nc4ncc(F)c(n4)N[C@@H]1[C@@H]3C2 | ring closure, yield of all isomers (from NC(=O)[C@H]1[C@@H]2C[C@@H](CNC(=O)Cn3cnc([N+](=O)[O-])c3)[C@@H](C2)[C@H]1Nc1nc(Cl)ncc1F, snar bond, 2 steps): 46.6%
 |  |  | 0.101 to 1 µM |  | NC(=O)[C@H]1[C@@H]2C[C@H]3CNCC(O)c4cccc(c4)Nc4ncc(F)c(n4)N[C@@H]1[C@@H]3C2 (stereo partly drawn) | ring closure, yield of all isomers (from NC(=O)[C@H]1[C@@H]2C[C@@H](CNCC(O)c3cccc(N)c3)[C@@H](C2)[C@H]1Nc1nc(Cl)ncc1F, snar bond, HCl): 43.9%
 |  |  | 0.001 to 0.1 µM |  | CN1CCN(c2cc3cc(c2)S(=O)(=O)NC[C@@H]2C[C@@H]4C[C@H]2[C@@H](Nc2nc(ncc2F)N3)[C@H]4C(N)=O)CC1 | ring closure, yield of all isomers (from CN1CCN(c2cc(N)cc(S(=O)(=O)NC[C@@H]3C[C@@H]4C[C@H]3[C@@H](Nc3nc(Cl)ncc3F)[C@H]4C(N)=O)c2)CC1, snar bond, HCl): 6.8%
0.001 to 0.1 µM |  |  | 0.001 to 0.1 µM |  | CN1CCN(c2ccc3cc2CC(=O)N[C@@H]2C[C@@H]4C[C@H]2[C@@H](Nc2nc(ncc2F)N3)[C@H]4C(N)=O)CC1 | ring closure, yield of all isomers (from CN1CCN(c2ccc(N)cc2CC(=O)N[C@@H]2C[C@@H]3C[C@H]2[C@@H](Nc2nc(Cl)ncc2F)[C@H]3C(N)=O)CC1, snar bond): 5.3%
 |  |  |  |  | CC(=O)N1Cc2cccc(c2)Nc2ncc(F)c(n2)N[C@@H]2[C@@H]3C[C@@H](C[C@H]3C1)[C@@H]2C(N)=O | ring closure, yield of all isomers (from CC(=O)N(Cc1cccc(N)c1)C[C@@H]1C[C@@H]2C[C@H]1[C@@H](Nc1nc(Cl)ncc1F)[C@H]2C(N)=O, snar bond): 45.4%
 |  |  |  |  | Fc1cnc2nc1NC1CCC(CC1)OCC=CCOc1cccc(c1)N2 | ring closure, yield of all isomers (from C=CCOc1cccc(Nc2ncc(F)c(NC3CCC(OCC=C)CC3)n2)c1, rcm bond, Grubbs 2nd generation, then Hoveyda-Grubbs 2nd generation, dichloromethane, 2.0 mM, 40.0 °C, 76.0 h): 2.7% and 5.9%
 |  |  |  |  | Fc1cnc2nc1NC1CCCC(C1)OCC=CCOc1cccc(c1)N2 (stereo not drawn) | ring closure, yield of all isomers (from C=CCOc1cccc(Nc2ncc(F)c(NC3CCCC(OCC=C)C3)n2)c1, rcm bond, Grubbs 2nd generation, dichloromethane, 2.0 mM, 40.0 °C, 16.0 h): 1.5%
 |  |  |  |  | NC(=O)[C@H]1[C@@H]2CC3CNC(=O)c4cccc(c4)Nc4ncc(F)c(n4)N[C@@H]1[C@@H]3C2 (stereo partly drawn) | ring closure, yield of all isomers (from CC(C)(C)OC(=O)Nc1cccc(C(=O)NCC2C[C@@H]3C[C@H]2[C@@H](Nc2nc(Cl)ncc2F)[C@H]3C(N)=O)c1, snar bond, TFA, 2 steps): 1.8%
 |  |  |  |  | NC(=O)[C@H]1[C@@H]2CC3CNS(=O)(=O)c4cccc(c4)Nc4ncc(F)c(n4)N[C@@H]1[C@@H]3C2 (stereo partly drawn) | ring closure, yield of all isomers (from NC(=O)[C@H]1[C@@H]2CC(CNS(=O)(=O)c3cccc(N)c3)[C@@H](C2)[C@H]1Nc1nc(Cl)ncc1F, snar bond): 8.5%
 |  |  |  |  | NC(=O)[C@H]1[C@@H]2C[C@H]3CNC(=O)Cc4cccc(c4)Nc4ncc(F)c(n4)N[C@@H]1[C@@H]3C2 | ring closure, yield of all isomers (from NC(=O)[C@H]1[C@@H]2C[C@@H](CNC(=O)Cc3cccc(N)c3)[C@@H](C2)[C@H]1Nc1nc(Cl)ncc1F, snar bond, 2 steps): 7%
0.001 to 0.1 µM | 1 to 6.25 µM | 2/36 at 1 μM | 0.001 to 0.1 µM | 1 to 6.25 µM | NC(=O)[C@H]1[C@H]2C[C@H]3[C@H]1Nc1nc(ncc1F)Nc1cccc(c1)C(=O)CS[C@@H]3C2 [drawing 214] | 
0.001 to 0.1 µM | > 6.25 µM |  | 0.001 to 0.1 µM | > 6.25 µM | O=C(O)[C@H]1[C@H]2C[C@H]3[C@H]1Nc1nc(ncc1F)Nc1cccc(c1)OCCS[C@@H]3C2 [drawing 218] | Kinase Inhibition Profile (not incl. Aurora) # kinases hit/# kinases tested ([3]; at 10 μM): 8/36 at 10 μM
0.001 to 0.1 µM | 1 to 6.25 µM | 11/36 at 1 μM | 0.001 to 0.1 µM | 1 to 6.25 µM | NC(=O)[C@H]1[C@H]2C[C@H]3[C@H]1Nc1nc(ncc1F)Nc1cccc(c1)OCCS[C@@H]3C2 [drawing 219] | 
0.001 to 0.1 µM | 0.101 to 1 µM | 12/51 at 1 μM | 0.001 to 0.1 µM | 0.101 to 1 µM | CN1CCN(c2ccc3cc2OCCS[C@@H]2C[C@@H]4C[C@H]2[C@@H](Nc2nc(ncc2F)N3)[C@H]4C(N)=O)CC1 [drawing 220] | 
0.001 to 0.1 µM | 0.101 to 1 µM | 12/36 at 1 | 0.001 to 0.1 µM | 0.101 to 1 µM | NC(=O)[C@H]1[C@H]2C[C@H]3[C@H]1Nc1nc(ncc1F)Nc1cccc(c1)NC(=O)CS[C@@H]3C2 [drawing 221] | 
0.001 to 0.1 µM | 0.101 to 1 µM | 13/36 at 1 μM | 0.001 to 0.1 µM | 0.101 to 1 µM | CN1CCN(c2ccc3cc2NC(=O)CS[C@@H]2C[C@@H]4C[C@H]2[C@@H](Nc2nc(ncc2F)N3)[C@H]4C(N)=O)CC1 [drawing 222] | 
0.101 to 1 µM | > 6.25 µM | 12/38 at 1 μM | 0.001 to 0.1 µM | > 6.25 µM | N#Cc1ccc2cc1NC(=O)CS[C@@H]1C[C@@H]3C[C@H]1[C@@H](Nc1nc(ncc1F)N2)[C@H]3C(N)=O [drawing 223] | 
0.001 to 0.1 µM | 1 to 6.25 µM | 1/76 at 1 μM | 0.001 to 0.1 µM | 1 to 6.25 µM | NC(=O)[C@H]1[C@@H]2CC3CNC(=O)c4cccc(c4)Nc4ncc(F)c(n4)N[C@@H]1[C@@H]3C2 (stereo partly drawn) [drawing 254] | 
0.001 to 0.1 µM |  | 1/76 at 1 μM | 0.001 to 0.1 µM |  | NC(=O)[C@H]1[C@@H]2CC3CNC(=O)c4cccc(c4)Nc4ncc(F)c(n4)N[C@@H]1[C@@H]3C2 (stereo partly drawn) [drawing 259] | IC50 [2]: 1 to 6.25 µM; IC50 ([5]; MiaPaca2): 1 to 6.25 µM
